For the first assay, the target named is T1, hPR (Homo sapiens, UniProt P06401).
T1 sequence (P06401 1-933): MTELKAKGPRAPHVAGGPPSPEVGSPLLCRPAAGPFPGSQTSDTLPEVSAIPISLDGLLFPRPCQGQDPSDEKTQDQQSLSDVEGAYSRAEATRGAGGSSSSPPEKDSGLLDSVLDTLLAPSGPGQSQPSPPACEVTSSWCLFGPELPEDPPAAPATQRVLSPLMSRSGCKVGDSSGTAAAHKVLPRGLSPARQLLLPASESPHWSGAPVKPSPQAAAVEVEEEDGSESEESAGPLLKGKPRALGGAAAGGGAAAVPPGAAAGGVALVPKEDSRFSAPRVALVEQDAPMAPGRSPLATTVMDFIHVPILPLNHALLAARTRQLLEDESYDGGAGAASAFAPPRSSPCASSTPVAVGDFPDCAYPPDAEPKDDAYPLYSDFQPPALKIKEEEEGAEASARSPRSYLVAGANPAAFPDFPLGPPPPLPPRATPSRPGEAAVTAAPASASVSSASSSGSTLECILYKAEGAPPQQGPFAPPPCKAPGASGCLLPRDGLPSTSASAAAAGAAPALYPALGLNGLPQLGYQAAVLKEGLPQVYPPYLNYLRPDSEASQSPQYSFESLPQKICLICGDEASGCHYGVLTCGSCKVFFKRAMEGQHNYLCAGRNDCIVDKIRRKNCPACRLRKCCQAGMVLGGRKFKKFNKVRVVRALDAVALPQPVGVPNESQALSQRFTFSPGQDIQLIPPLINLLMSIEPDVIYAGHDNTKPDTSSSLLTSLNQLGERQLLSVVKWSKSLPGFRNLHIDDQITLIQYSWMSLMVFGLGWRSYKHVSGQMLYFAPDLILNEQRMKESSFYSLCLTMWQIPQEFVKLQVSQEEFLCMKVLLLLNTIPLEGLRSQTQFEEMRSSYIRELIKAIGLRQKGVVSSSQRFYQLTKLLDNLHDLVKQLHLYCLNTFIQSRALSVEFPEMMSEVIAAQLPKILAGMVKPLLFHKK
The assay is described as follows: hPR cotransfection assay in CV-1 cells, agonist mode. Type of assay: cell-based. The conditions noted are these: Tables 3 and 4, values without footnote; read-out: hPR agonist potencies (EC50 in nM) in the cotransfection assay.
Procedure: Antagonist efficacy was determined as a function (%) of maximal inhibition of a reference agonist at EC50 concentration. All the cotransfection experiments were carried out in 96-well plates by automation (Beckman Biomomek automated workstation).
On to `COc1ccccc1/C=C1\Oc2ccc(F)cc2-c2ccc3c(c21)C(C)=CC(C)(C)N3` [Formula II X=9-F 2-MeO-Ph, reference compound], for which the concentration for a half-maximal effect (EC50) was 0.93 nM.

As for `CC1=CC(C)(C)Nc2ccc3c(c21)/C(=C/c1cccc(F)c1C)Oc1c(F)cc(F)cc1-3` [Compound 21, 7,9-difluoro-5(Z)-(2-methyl-3-fluorobenzylidene)-1,2-dihydro-2,2,4-trimethyl-5H-chromeno[3,4-f]quinoline], the concentration for a half-maximal effect (EC50) worked out at 8.2 nM.

Turning to `CC1=CC(C)(C)Nc2ccc3c(c21)/C(=C/c1cc(F)ccc1C)Oc1ccc(Cl)cc1-3` [Formula II X=9-Cl 2-Me-5-F-Ph, reference compound], the EC50 amounted to 2.1 nM.

For the compound `CC1=CC(C)(C)Nc2ccc3c(c21)/C(=C/c1cccc(F)c1C)Oc1ccc(F)cc1-3` [Formula II X=9-F 2-Me-3-F-Ph, reference compound], the EC50 amounted to 8.4 nM.

For the compound `CC1=CC(C)(C)Nc2ccc3c(c21)/C(=C/c1cc(F)ccc1C)Oc1ccc(F)cc1-3` [Formula II X=9-F 2-Me-5-F-Ph, reference compound], the 50% effective concentration (EC50) came to 2.1 nM.

With `CCC1Oc2ccc(F)cc2-c2ccc3c(c21)C(C)=CC(C)(C)N3` (centres unmarked) [Formula I X=9-F Et, reference compound], the EC50 amounted to 9 nM.

In the case of `CC1=CC(C)(C)Nc2ccc3c(c21)/C(=C/c1cccc(F)c1)Oc1ccc(C)cc1-3` [Formula II X=9-Me 3-F-Ph, reference compound], the concentration for a half-maximal effect (EC50) came to 7.95 nM.

Consider `CC1=CC(C)(C)Nc2ccc3c(c21)C(c1cccc(C(F)(F)F)c1)Oc1ccc(Cl)cc1-3` (centres unmarked) [Formula I X=9-Cl 3-CF3-Ph, reference compound], for which the EC50 stood at 7.4 nM.

For `CC1=CC(C)(C)Nc2ccc3c(c21)/C(=C/c1cccc(F)c1)Oc1ccc(Cl)cc1-3` [Formula II X=9-Cl 3-F-Ph, reference compound], the 50% effective concentration (EC50) was determined as 11.6 nM.

`CC1=CC(C)(C)Nc2ccc3c(c21)/C(=C/c1ccccc1)Oc1ccc(F)cc1-3` [Formula II X=9-F Phenyl, reference compound]: the concentration for a half-maximal effect (EC50) was determined as 5.25 nM.

For `CC1=CC(C)(C)Nc2ccc3c(c21)C(c1cccc(Br)c1)Oc1c(F)cc(F)cc1-3` (racemic) [Compound 42, (±)-7,9-difluoro-5-(3-bromophenyl)-1,2-dihydro-2,2,4-trimethyl-5H-chromeno[3,4-f]quinoline], the EC50 stood at 3.65 nM.

Consider `COc1ccc2c(c1)-c1ccc3c(c1C(c1cccc(C)c1)O2)C(C)=CC(C)(C)N3` (centres unmarked) [Formula I X=9-OMe 3-Me-Ph, reference compound], for which the concentration giving a half-maximal response (EC50) was determined as 11 nM.

On to `CC1=CC(C)(C)Nc2ccc3c(c21)/C(=C/c1ccccc1C)Oc1cc(F)ccc1-3` [Formula II X=8-F 2-Me-Ph, reference compound], for which the EC50 was found to be 13 nM.

Consider `CC1=CC(C)(C)Nc2ccc3c(c21)/C(=C/c1ccccc1)Oc1c(Cl)cccc1-3` [Formula II X=7-Cl Phenyl, reference compound], for which the concentration for a half-maximal effect (EC50) was 6.2 nM.

Turning to `COc1ccc2c(c1)O/C(=C\c1ccncc1C)c1c-2ccc2c1C(C)=CC(C)(C)N2` [Formula II X=8-OMe 3-Me-4-pyridinyl, reference compound], the EC50 is 24 nM.

Turning to `COc1ccc2c(c1)-c1ccc3c(c1/C(=C/c1ccccc1C)O2)C(C)=CC(C)(C)N3` [Formula II X=9-OMe 2-Me-Ph, reference compound], the concentration for a half-maximal effect (EC50) came to 67.5 nM.

For `COc1ccc(F)cc1/C=C1\Oc2ccc(F)cc2-c2ccc3c(c21)C(C)=CC(C)(C)N3` [Formula II X=9-F 2-MeO-5-F-Ph, reference compound], the EC50 turned out to be 0.9 nM.

As to `CC1=CC(C)(C)Nc2ccc3c(c21)C(c1cccc(Cl)c1)Oc1ccc(C)cc1-3` (centres unmarked) [Formula I X=9-Me 3-Cl-Ph, reference compound], the concentration giving a half-maximal response (EC50) worked out at 4.85 nM.

With `CC1=CC(C)(C)Nc2ccc3c(c21)/C(=C/c1ccccc1C)Oc1ccc(O)cc1-3` [Formula II X=9-OH 2-Me-Ph, reference compound], the EC50 was found to be 9.3 nM.

Regarding `CC1=CC(C)(C)Nc2ccc3c(c21)/C(=C/c1cccc(F)c1)Oc1ccc(O)cc1-3` [Formula II X=9-OH 3-F-Ph, reference compound], the EC50 came out at 5.75 nM.

In the case of `COc1ccc2c(c1)O/C(=C\c1cccc(F)c1)c1c-2ccc2c1C(C)=CC(C)(C)N2` [Formula II X=8-OMe 3-F-Ph, reference compound], the 50% effective concentration (EC50) is 8.6 nM.

As for `CC1=CC(C)(C)Nc2ccc3c(c21)/C(=C/c1ccccc1F)Oc1ccc(Cl)cc1-3` [Formula II X=9-Cl 2-F-Ph, reference compound], the half-maximal effective concentration (EC50) is 26.5 nM.

Regarding `CC1=CC(C)(C)Nc2ccc3c(c21)/C(=C/c1cccs1)Oc1ccc(F)cc1-3` [Formula II X=9-F 2-Thienyl, reference compound], the concentration giving a half-maximal response (EC50) worked out at 18 nM.

Regarding `C=CCC1Oc2c(F)cc(F)cc2-c2ccc3c(c21)C(C)=CC(C)(C)N3` (racemic) [Compound 55, (±)-7,9-difluoro-5-allyl-1,2-dihydro-2,2,4-trimethyl-5H-chromeno[3,4-f]quinoline], the EC50 was 3.6 nM.

As for `COc1ccc2c(c1)O/C(=C\c1ccccc1F)c1c-2ccc2c1C(C)=CC(C)(C)N2` [Formula II X=8-OMe 2-F-Ph, reference compound], the concentration giving a half-maximal response (EC50) was 45 nM.

Turning to `COc1ccc2c(c1)O/C(=C\c1ccccc1)c1c-2ccc2c1C(C)=CC(C)(C)N2` [Formula II X=8-OMe Phenyl, reference compound], the EC50 is 5.5 nM.

As to `CC1=CC(C)(C)Nc2ccc3c(c21)C(c1ccc(Cl)c(C)c1)Oc1ccc(Cl)cc1-3` (centres unmarked) [Formula I X=9-Cl 4-Cl-3-Me-Ph, reference compound], the EC50 turned out to be 9.4 nM.

As for `COc1ccc(F)cc1/C=C1\Oc2ccc(O)cc2-c2ccc3c(c21)C(C)=CC(C)(C)N3` [Formula II X=9-OH 2-MeO-5-F-Ph, reference compound], the EC50 came to 11.5 nM.

Turning to `CC1=CC(C)(C)Nc2ccc3c(c21)C(c1ccc2c(c1)OCO2)Oc1c(F)cc(F)cc1-3` (racemic) [Compound 35, (±)-7,9-difluoro-5-(1,3-benzodioxol-5-yl)-1,2-dihydro-2,2,4-trimethyl-5H-chromeno[3,4-f]quinoline], the EC50 worked out at 3.85 nM.

As to `CC1=CC(C)(C)Nc2ccc3c(c21)/C(=C/c1ccccc1C)Oc1cc(F)c(F)cc1-3` [Formula II X=8,9-diF 2-Me-Ph, reference compound], the EC50 is 13 nM.

For `CC1=CC(C)(C)Nc2ccc3c(c21)/C(=C/c1cc(F)ccc1C)Oc1cc(F)c(F)cc1-3` [Formula II X=8,9-diF 2-Me-5-F-Ph, reference compound], the EC50 was 3.95 nM.

As to `CC1=CC(C)(C)Nc2ccc3c(c21)/C(=C/c1ccccc1Cl)Oc1c(F)cc(F)cc1-3` [Compound 13, 7,9-difluoro-5(Z)-(2-chlorobenzylidene)-1,2-dihydro-2,2,4-trimethyl-5H-chromeno[3,4-f]quinoline], the EC50 stood at 1.92 nM.

Regarding `CC1=CC(C)(C)Nc2ccc3c(c21)/C(=C/c1cc(F)ccc1F)Oc1ccc(Cl)cc1-3` [Formula II X=9-Cl 2,5-diF-Ph, reference compound], the EC50 came to 25 nM.

In the case of `CC1=CC(C)(C)Nc2ccc3c(c21)/C(=C/c1ccccc1Cl)Oc1ccc(F)cc1-3` [Formula II X=9-F 2-Cl-Ph, reference compound], the EC50 stood at 12 nM.

With `CC1=CC(C)(C)Nc2ccc3c(c21)/C(=C/c1ccc(F)cc1)Oc1ccc(F)cc1-3` [Formula II X=9-F 4-F-Ph, reference compound], the 50% effective concentration (EC50) was determined as 3.95 nM.

Consider `COc1ccc2c(c1)O/C(=C\c1ccccc1OC)c1c-2ccc2c1C(C)=CC(C)(C)N2` [Formula II X=8-OMe 2-MeO-Ph, reference compound], for which the EC50 was found to be 24 nM.

In the case of `COc1ccc2c(c1)O/C(=C\c1ccccc1Cl)c1c-2ccc2c1C(C)=CC(C)(C)N2` [Formula II X=8-OMe 2-Cl-Ph, reference compound], the EC50 was over 1000 nM.

As for `CC1=CC(C)(C)Nc2ccc3c(c21)C(c1cccc(C)c1)Oc1ccc(C)cc1-3` (centres unmarked) [Formula I X=9-Me 3-Me-Ph, reference compound], the 50% effective concentration (EC50) stood at 44 nM.

`CCCCC1Oc2c(F)cc(F)cc2-c2ccc3c(c21)C(C)=CC(C)(C)N3` (racemic) [Compound 52, (±)-7,9-difluoro-5-butyl-1,2-dihydro-2,2,4-trimethyl-5H-chromeno[3,4-f]quinoline]: the EC50 was 15 nM.

As for `COc1ccc2c(c1)O/C(=C\c1ccccc1C)c1c-2ccc2c1C(C)=CC(C)(C)N2` [Formula II X=8-OMe 2-Me-Ph, reference compound], the concentration giving a half-maximal response (EC50) was 3.5 nM.

Staying with this assay, now noted: hPR agonist potencies (EC50 in nM) in the cotransfection assay, Tables 3 and 4, values without footnote.
In turn, `CC1=CC(C)(C)Nc2ccc3c(c21)C(c1ccc(Cl)c(C)c1)Oc1ccc(C)cc1-3` (centres unmarked) [Formula I X=9-Me 4-Cl-3-Me-Ph, reference compound] came in with an EC50 of 7.45 nM.

As a reminder, the EC50 is the midpoint of the concentration-response curve.

The values are drawn from patent US7163946B2 (Ligand Pharmaceuticals Incorporated, priority 2002, dated 2007).
